According to patent US11439615B2, “Lipoxin and lipoxin analogue mediated neuroprotection and treatments” (University Health Network, priority 2017, dated 2022):

How the values were obtained:
HT22 cells = assay: Mitosox mitochondrial oxidative stress in glutamate challenged HT22 cells; type: cell-based; settings: 1 μM, HT22 cells challenged with glutamate, vs vehicle
Method: HT22 cells challenged with glutamate were then assayed for mitochondrial oxidative stress using the Mitosox reagent, in combination with 1 μM LXA4, LXB4, and the LXA4 receptor ALX/FPR2 agonists Quinc-1 and Mmk-1.

primary RGCs [1] = assay: Primary RGCs under serum deprivation, cell and neurite survival (β3-tubulin); type: cell-based, rat; settings: 1 μM, 48 hours of serum and supplement deprivation
Method: (§1) For astrocytes: Primary mature retinal astrocytes (RA) were isolated and cultured as previously described (46). Briefly, eyes were dissected out of adult Wistar rats and placed in ice-cold MEM-H17 media. Isolated retinas were digested by shaking in MEM-H17 containing papain and DNAse, followed by trituration to disperse cell-aggregates. When cultures reached confluence, the cells were placed on a rotating shaker for 6-8 hours to remove microglia and then re-plated. A glial-specific expression profile was confirmed by probing the cultures with a panel of glia microglia and neuronal markers (44). For RGCs: RGCs were purified using magnetic MicroBeads (Miltenyi Biotec, Germany) according to the manufacturer's protocol. Briefly; retinal cell suspensions were prepared from 8-10 day old rats and incubated with CD90.1 microbeads, and then carefully washed with DPBS/BSA buffer. The suspension was centrifuged at 130×g and the supernatant aspirated. Cells were then incubated with biotinylated depletion antibodies against microglia and endothelial cells. The labeled cell suspension was then incubated with magnetic Anti-Biotin MACSiBead™ Particles, and placed in a weak magnetic field. The pre-enriched cell suspension was centrifuged, and resuspended in fresh DPBS/BSA buffer and applied to a MACs MS separation column in the presence of a strong magnetic field to select for CD90.1-bound RGCs. To increase RGC purity, the eluted fraction was enriched over a second column. Purified RGCs were eluted and plated on poly-D-lysine coated dishes. The cells were cultured in Neurobasal-A media (Gibco) supplemented with 2% calf serum, B27, L-glutamine, BDNF, CNTF, forskolin and pen/strep.
To further confirm direct lipoxin activity in primary neurons, the ability of LXA4 or LXB4 to protect primary RGCs was tested. RGCs were isolated by immunopanning according to established methods. The cells were subjected to serum deprivation (SD), and then stained for β3-tubulin to quantify cell and neurite survival. Under normal serum, the RGCs extended an extensive network of neurites. […]

primary RGCs [2] = assay: Primary RGCs under paraquat oxidative stress, cell and neurite survival; type: cell-based, rat; settings: 1 μM, 24 hours of 30 μM PQ
Method: FIG. 5D is a graph showing Mitotracker red signal which indicates protection from […] membrane potential with LXB4 treatment (n=3). FIG. 5E is a series of images showing primary RGCs labeled with β3-tubulin extend an extensive network of neurites that disintegrate dramatically after 24 hours of 30 μM PQ. […] (Scale bar indicates 20 μm, *p<0.05, **p<0.01, bars are S.E.M.).
as §1

[3] = system: dopaminergic SH-SY5Y cells; assay: Mitochondrial oxidative stress in SH-SY5Y cells challenged with paraquat; type: cell-based; settings: paraquat (PQ) induced oxidative stress, vs vehicle
primary cortical neurons = assay: Primary cortical neurons under paraquat oxidative stress, neuron number; type: cell-based; settings: n=5
Source text: Quantification of neuron number following oxidative stress from the redox cycling compound paraquat in primary cortical neurons.

[4] = system: retinal ganglion cell neurons (RGCs); assay: Mouse acute retinal insult model (intravitreal kainic acid), RGC survival / GCL apoptosis; type: in vivo; settings: 2 μl of 10 μM intravitreally one hour prior to retinal KA insult; RBPMS counts
Method: Male C57BLL/6 mice, 4-6 weeks of age, were purchased from Taconic or Jackson labs. All experimental protocols were approved by the UHN and UC Berkeley ACUC in accordance with applicable regulations. Mice were anesthetized by intraperitoneal injection of ketamine/xylazine. Intravitreal injections with 10 mM kainic acid (KA) were performed as previously described (45). Briefly, a 30-gauge needle was inserted tangentially into the vitreous and replaced with a Hamilton syringe to inject a volume of 2 μL, followed by application of ophthalmic antibiotic ointment (BNP, Vetoquinol). In some experiments, 10× concentrated ACM or test compounds were injected intravitreally one hour prior to the KA injection in concentrations as follows: LXA4 and LXB4 at 10 μM, Zileuton at 2 μg/ul, and WRW4 at 15 μM, all dissolved in PBS. Mice were euthanized by CO2 asphyxiation 18 hours post KA treatment and the eyes fixed in 4% paraformaldehyde. In all experiments n refers to the number of animals tested.
To quantify the extent of apoptosis, a well-established method was used to count the number of TUNEL-positive nuclei in the ganglion cell layer (GCL) and expressed it as a fraction of the total GCL nuclei (50-54). TUNEL labeling was performed according to the manufacturer's instructions (DeadEnd; Promega). Briefly, cryostat sections were fixed with 4% PFA for 5 minutes and washed in PBS. Equilibration buffer was added, and rTdT reaction mix was applied to each slide and incubated at 37° C. for 60 min. Following the rTdT reaction, slides were washed in 2×SSC and PBS and finally mounted with glycerol-based medium. For RGC survival, RBPMS-positive cells in the GCL were counted and expressed as a fraction of GCL nuclei. For each eye, at least five central retinal sections were analyzed at the level of the optic nerve stretching to each ora serrata, and the results averaged, as previously described (42).
In order to test the influence of the transplanted cells on inner retinal pathology, RA's were transplanted as above. After 16 days retinas were challenged with an acute metabolic injury by injection of kainic acid (KA). […]
Retinal astrocyte neuroprotection is mediated through secreted factors that include a small molecule component enriched in LXA4 and LXB4. […] This time, survival of RGCs was specifically assessed by probing for the selective marker RBPMS, along with complementary TUNEL staining, and quantified as previously. As expected, extensive RGC loss was detected in KA challenged eyes injected with cell-free control media incubated under the same conditions as ACM (FIG. 2A). […]

CCCCC[C@H](O)/C=C/C=C\C=C\C=C\[C@@H](O)[C@@H](O)CCCC(=O)O [LXA4, 5S,6R,15S-trihydroxy-7E,9E,11Z,13E-eicosatetraenoic acid]
mitochondrial oxidative stress (Mitosox) (HT22 cells): reduce mitochondrial oxidative stress
neuron survival following serum deprivation (primary RGCs [1]): significant rescue
RGC survival following oxidative stress (primary RGCs [2]): significant rescue
mitochondrial oxidative stress / mitochondria stabilisation [3]: stabilize mitochondria
neuron number following oxidative stress from paraquat (primary cortical neurons): have activities
increase of RGC survival compared to vehicle control [4]: 37%

CCCCC[C@H](O)[C@H](O)/C=C/C=C/C=C\C=C\[C@@H](O)CCCC(=O)O [LXB4, 5S,14R,15S-trihydroxy-6E,8Z,10E,12E-eicosatetraenoic acid]
mitochondrial oxidative stress (Mitosox) (HT22 cells): reduce mitochondrial oxidative stress
neurite degeneration following serum deprivation (intact neurite ratio) (primary RGCs [1]): strongly rescued
neuron survival following serum deprivation (primary RGCs [1]): significant rescue
RGC neurite degeneration following PQ challenge (primary RGCs [2]): significantly rescued
RGC survival following oxidative stress (primary RGCs [2]): significant rescue
mitochondrial oxidative stress / mitochondria stabilisation [3]: stabilize mitochondria
neuron number following oxidative stress from paraquat (primary cortical neurons): have activities
increase of RGC survival compared to vehicle control [4]: 50%
